The test system of assay [1] is A549. In kind it is cell-based, human. The following applies: 72 h. The procedure: (§1) Cell culture: MCF-7/MD-MAB-231 (human breast cancer cell line ATCC HTB-22/HTB-26), Hep G2 (human liver cancer cell line ATCC HB-8065), Hela (human cervical carcinoma cell line ATCC CCL-2), A459 (human lung cancer cell line ATCC CCL-185), and HUVEC (primary umbilical vein endothelial cell line ATCC PCS-100-010) were obtained from the Jinan Department of Pathology, University School of Medicine (Jinan University, Guangzhou, China). The cells were cultured in a Modified Eagle’s Medium (DMEM) including 10% fetal bovine serum, 1% penicillin-streptomycin, and antifungal agent, and cultured under standard conditions (5% CO2 atmosphere and temperature at 37 °C). The MTT method was used to evaluate the cytotoxicities of galaxamide and its analogues on the five cancerous cells. In this experiment, the number of regulated cells was 2 × 10^3 cells/well. Then, the cells, as well as galaxamide and its analogues of different concentrations (0, 2.5, 5, and 10 μg/mL), were seeded on a 96-well cell culture plate and cultured in a 37 °C, 5% CO2 incubator for 72 h. After that, 20 µL/well of MTT solution (5 mg/mL phosphate-buffered saline) was added and incubated for 5 h. The medium was discarded and replaced with 100 µL/well of DMSO to dissolve the formazan salt. The color intensity of the cell culture at 570 nm was measured using a microplate spectrophotometer (SpectroAma™ 250, Winooski, VT, USA).

Assay [2] has as its system HUVEC. In kind it is cell-based, human. The following applies: 72 h. How it is done:
as §1

For assay [3], the system named is Hela. In kind it is cell-based, human. The following applies: 72 h. The procedure: as §1
Assay [4] relates to HepG2. In kind it is cell-based, human. The following applies: 72 h. How it is done:
as §1

The test system of assay [5] is MCF-7. In kind it is cell-based, human. The following applies: 72 h. The procedure: as §1
Assay [6] concerns MD-MBA-231. In kind it is cell-based, human. The following applies: 72 h. How it is done: as §1
Assay [7] concerns MCF-7 cells. Description: Cell cycle distribution by propidium iodide staining / flow cytometry. In kind it is cell-based, human. The following applies: 0, 2.5, 5, 10 µg/mL, 72 h. How it is done: Therefore, propidium iodide (PI) staining method was used to further investigate the changes in the cell cycle distribution of MCF-7. In particular, MCF-7 cells were exposed to galaxamide, Z-3, and Z-6 with concentrations of 0, 2.5, 5, and 10 µg/mL for 72 h. Generally, the main effects of galaxamide, Z-3, and Z-6 on MCF-7 cells were in the G0/G1 phase. There was no obvious sub diploid peak in flow cytometry.
(§2) The concentration of 1 × 10^4 cells per well of MCF-7 cells were seeded in 96-well plates. The cell cultures were added to the compounds with a concentration of 0, 2.5, 5, and 10 µg/mL, and incubated for 72 h. After that, 5 µL of Annexin V-fluorescein isothiocyanate (FITC) and 5 µL of PI were added for dual staining of the cells for analysis by FACS flow cytometry. Cell cycles and apoptotic cells were determined by counting the FITC-positive and PI-negative fractions.

Assay [8] deals with MCF-7 cells. Description: Annexin V-FITC/PI double staining apoptosis, flow cytometry. In kind it is cell-based, human. The following applies: 0, 2.5, 5, 10 µg/mL, 72 h. How it is done:
The Annexin V-FITC/PI double staining method was used to analyze the changes in the apoptosis of MCF-7 cells after 72 h of galaxamide, Z-3, and Z-6 exposure. […] At low concentrations, the effects of all the tested compounds were not obvious. When the concentration reached 10 μg/mL, the apoptotic effects of galaxamide, Z-3, and Z-6 on MCF-7 cells were more obvious in the late apoptotic state.
as §2
The apoptotic cells were quantified according to the instructions provided in an Annexin V-FITC (Sigma-Aldrich, St. Louis, MO, USA) cell apoptosis assay kit. Briefly, about 1.5 × 10^5 cells were plated in 96-well plates and treated with galaxamide and its representative analogues (0, 2.5, 5, and 10 µg/mL) for 48 h. The cells were then resuspended in a […] binding buffer. Afterward, […] of annexin V-fluorescein isothiocyanate (FITC) was added, followed by incubation in darkness at room temperature for 10 min. The cells were again resuspended in […] binding buffer and stained with […] PI. The prepared cells were then analyzed using a flow cytometry (Coulter Epics Elite, Miami, FL, USA). The cells in the FITC-positive and PI-negative fractions were regarded as apoptotic cells.

Assay [9] has as its system MCF-7 cells. As to the kind of experiment: Hoechst 33,342 staining of nuclear morphology. In kind it is cell-based, human. The following applies: 72 h. How it is done: The morphological alteration of MCF-7 cells was analyzed by the method of Hoechst 33,342 staining (Figure 5). […] The pyknotic nuclei increased with the increasing concentration of these compounds.
[…] After that, the cell culture was washed with 1 mL of PBS and then added with 3 mL of 4% paraformaldehyde solution for 15 min. Then, 1 mL of the prepared Hoechst 33,342 staining solution was added. The resulting mixture was incubated at room temperature for 15 min in the dark.

Assay [10] concerns GRC-1. More on the design: method as in PMID 18816120. The following applies: cited from earlier work.
Assay [11] has as its system HepG2. Further details: method as in PMID 18816120. The following applies: cited from earlier work.

Converted amounts (≈) assume the structure as drawn. “Also recorded” adds a separate entry of the source. Square brackets hold non-standard residues; d marks the D form. Peptide text beside a SMILES is read from it. NMeL = CN[C@@H](CC(C)C)C(=O)O

`CC(C)C[C@@H]1NC(=O)[C@@H](CC(C)C)NC(=O)[C@@H]2CCCN2C(=O)[C@H](CC(C)C)NC(=O)[C@@H]2CCCN2C1=O` [Compound Z-3, Cyclo (Leu-Pro-Leu-Pro-Leu)] (cyclo(LPLP[dL])): in assay [1], the “IC50 A549” value was 6.43 ± 0.43 µg/mL (≈ 12 µM). The “IC50 HUVEC” value in [2] is above 40 µg/mL. The “IC50 Hela” value in assay [3] amounted to 5.57 ± 0.45 µg/mL (≈ 10.4 µM). Besides, the “IC50 HepG2” value in assay [4] turned out to be 5.05 ± 0.45 µg/mL (≈ 9.46 µM). Also, in [5], the “IC50 MCF-7” value worked out at 2.25 ± 0.42 µg/mL (≈ 4.22 µM). Besides, the “IC50 MD-MBA-231” value in assay [6] was determined as 6.34 ± 0.60 µg/mL (≈ 11.9 µM). Further, in assay [7], the “Effect on cell cycle of MCF-7 (in words)” value is given as “mainly blocked the growth of cells in the G0/G1 phase”. Besides, in assay [8], the “Apoptosis of MCF-7 cells (in words)” value is listed as “significantly higher than those of galaxamide; also recorded: concentration-dependent apoptosis”. In addition, in [9], the “Nuclear morphology of MCF-7 cells (in words)” value is recorded as “the morphology of the nuclei was significantly changed”.

As to `CC(C)C[C@@H]1NC(=O)[C@H](CC(C)C)N(C)C(=O)[C@H](CC(C)C)NC(=O)[C@H](CC(C)C)N(C)C(=O)[C@H](CC(C)C)NC1=O` [galaxamide] (cyclo(LL[NMeL]L[NMeL])), the “IC50 A549” value in assay [1] was 6.99 ± 0.63 µg/mL (≈ 11.8 µM). For the same compound, the “IC50 HUVEC” value in assay [2] was above 40 µg/mL. Also, the “IC50 Hela” value in assay [3] was determined as 8.53 ± 0.73 µg/mL (≈ 14.4 µM). For the same compound, the “IC50 HepG2” value in assay [4] amounted to 5.20 ± 0.52 µg/mL (≈ 8.76 µM). Besides, the “IC50 MCF-7” value in assay [5] is 11.33 ± 2.95 µg/mL (≈ 19.1 µM). The “IC50 MD-MBA-231” value in assay [6] is 8.73 ± 0.29 µg/mL (≈ 14.7 µM). Besides, in [7], the “Effect on cell cycle of MCF-7 (in words)” value was “mainly blocked the growth of cells in the G0/G1 phase”. Moreover, in assay [8], the “Apoptosis of MCF-7 cells (in words)” value is listed as “apoptosis rate of MCF-7 increased with the increasing of the concentration”. Also, the “Nuclear morphology of MCF-7 cells (in words)” value in assay [9] is “the morphology of the nuclei was significantly changed”. For the same compound, in assay [10], the “Antitumor activity against GRC-1 (in words)” value is listed as “significant antitumor activities”. In [11], the “Antitumor activity against HepG2 (in words)” value was “significant antitumor activities”.
